Test results: patent US12624017B2, “Salt form of isoquinolinone type compound as rock inhibitor and preparation method therefor” (GUANGZHOU OCUSUN OPHTHALMIC BIOTECHNOLOGY CO., LTD., priority 2020, dated 2026)

What was measured:
[1] = Hygroscopicity research by dynamic vapor sorption (DVS); format: physicochemical; conditions: 25° C. and 80% RH
Description: Dynamic Vapor Sorption (DVS) Method
Instrument model: SMS DVS intrinsic dynamic vapor sorption instrument
A dynamic water sorption experiment consists of adsorption and desorption. It is generally believed that at a set relative humidity, the adsorption or desorption of the sample to moisture at this relative humidity is considered to have reached equilibrium when the sample weight reaches dm/dt≤0.01%.
Sample testing temperature: T=25° C.
Equilibrium time: dm/dt: 0.01%/min
Relative humidity variation range: 0%-95%-0%; RH (%)
Test humidity change at each step: 5%
The evaluation of hygroscopicity is classified as follows:
SMS DVS intrinsic dynamic vapor sorption instrument
10 to 15 mg of the crystal form B of the compound of formula (II) was put in a DVS sample tray for testing.

[2] = Solid stability research (crystal form stability on storage); format: physicochemical; conditions: 40° C./75% RH 6 months; 25° C./60% RH 12 months
Description: The crystal form B of the compound of formula (II) was placed at 40° C./75% RH (sealed with a double-layer LDPE bag and further heat-sealed with an aluminum foil bag) for 6 months, and placed at 25° C./60% RH (sealed with a double-layer LDPE bag and further heat-sealed with an aluminum foil bag) for 12 months, respectively. The crystal form was tested individually at each sampling point to determine the crystal form stability of the sample.

With `Cc1ccc(C(=O)OCn2cc(C)c3c(S(=O)(=O)N4CC[C@H](N)C4)cccc3c2=O)c(C)c1` the Classification of hygroscopicity [1] was “slightly hygroscopic”, the “ΔW, hygroscopic weight gain” value ([1]; DVS) was 0.736% and the “Stability in accelerated and long-term tests” value [2] was “good stability”.
